Tests used:
[1] = tested on: Epidermal growth factor receptor (Homo sapiens), P00533 [G719C]; conditions: Compound concentration 1000.0 nM
[2] = target: Mu-type opioid receptor (Homo sapiens) (UniProt P35372); conditions: Compound concentration 10.0 uM
[3] = target: Glycogen synthase kinase-3 beta (Homo sapiens) (UniProt P49841); conditions: Compound concentration 1000.0 nM
[4] = target: Serine/threonine-protein kinase D3 (Homo sapiens) (UniProt O94806); conditions: Compound concentration 1000.0 nM
[5] = target: cAMP-dependent protein kinase catalytic subunit beta (Homo sapiens) (UniProt P22694); conditions: Compound concentration 1000.0 nM
[6] = target: Myosin light chain kinase, smooth muscle (Homo sapiens) (UniProt Q15746); conditions: Compound concentration 1000.0 nM
[7] = target: AP2-associated protein kinase 1 (Homo sapiens) (UniProt Q2M2I8); conditions: Compound concentration 1000.0 nM
[8] = tested on: Tyrosine-protein kinase ABL1 (Homo sapiens), P00519 [M351T]; conditions: Compound concentration 1000.0 nM
[9] = tested on: Receptor-type tyrosine-protein kinase FLT3 (Homo sapiens), P36888 [D835H]; conditions: Compound concentration 1000.0 nM
[10] = target: Serine/threonine-protein kinase 32C (Homo sapiens) (UniProt Q86UX6); conditions: Compound concentration 1000.0 nM
[11] = target: Cyclin-dependent kinase 8 (Homo sapiens) (UniProt P49336); conditions: Compound concentration 1000.0 nM
[12] = target: Mitogen-activated protein kinase kinase kinase 14 (Homo sapiens) (UniProt Q99558); conditions: Compound concentration 1000.0 nM
[13] = target: Angiopoietin-1 receptor (Homo sapiens) (UniProt Q02763); conditions: Compound concentration 1000.0 nM
[14] = target: Insulin receptor-related protein (Homo sapiens) (UniProt P14616); conditions: Compound concentration 1000.0 nM
[15] = target: Cyclin-dependent kinase 15 (Homo sapiens) (UniProt Q96Q40); conditions: Compound concentration 1000.0 nM
[16] = target: Tyrosine-protein kinase receptor Tie-1 (Homo sapiens) (UniProt P35590); conditions: Compound concentration 1000.0 nM
[17] = target: 5-hydroxytryptamine receptor 2B (Homo sapiens) (UniProt P41595); assay: 5-HT2B (h) Eurofins-Cerep Cellular and Nuclear Receptor Functional Assays; conditions: Compound concentration 10.0 uM
[18] = target: T1, Muscarinic acetylcholine receptor M1 (Homo sapiens) (UniProt P11229); conditions: Compound concentration 10.0 uM
T1 sequence (whole entry): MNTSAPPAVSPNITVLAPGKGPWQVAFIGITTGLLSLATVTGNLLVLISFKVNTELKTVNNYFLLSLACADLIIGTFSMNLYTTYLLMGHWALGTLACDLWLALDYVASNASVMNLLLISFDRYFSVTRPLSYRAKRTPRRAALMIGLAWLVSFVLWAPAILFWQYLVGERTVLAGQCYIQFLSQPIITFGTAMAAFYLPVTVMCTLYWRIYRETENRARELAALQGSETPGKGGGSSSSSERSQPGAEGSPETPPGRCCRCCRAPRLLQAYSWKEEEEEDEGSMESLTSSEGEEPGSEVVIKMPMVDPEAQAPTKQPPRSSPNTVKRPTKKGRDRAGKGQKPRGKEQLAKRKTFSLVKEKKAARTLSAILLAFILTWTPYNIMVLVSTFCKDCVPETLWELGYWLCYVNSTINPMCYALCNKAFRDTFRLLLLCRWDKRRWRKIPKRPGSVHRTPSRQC

[19] = target: NUAK family SNF1-like kinase 1 (Homo sapiens) (UniProt O60285); conditions: Compound concentration 1000.0 nM
[20] = target: Tyrosine-protein kinase BTK (Homo sapiens) (UniProt Q06187); conditions: Compound concentration 1000.0 nM
[21] = target: Tyrosine-protein kinase Fes/Fps (Homo sapiens) (UniProt P07332); conditions: Compound concentration 1000.0 nM
[22] = target: Beta-2 adrenergic receptor (Homo sapiens) (UniProt P07550); conditions: Compound concentration 10.0 uM
[23] = target: Muscarinic acetylcholine receptor M5 (Homo sapiens) (UniProt P08912); conditions: Compound concentration 10.0 uM
[24] = target: Beta-adrenergic receptor kinase 1 (Homo sapiens) (UniProt P25098); conditions: Compound concentration 1000.0 nM
[25] = target: Rhodopsin kinase GRK7 (Homo sapiens) (UniProt Q8WTQ7); conditions: Compound concentration 1000.0 nM
[26] = tested on: Tyrosine-protein kinase ABL1 (Homo sapiens), P00519 [F317I]; conditions: Compound concentration 1000.0 nM
[27] = target: Serine/threonine-protein kinase 36 (Homo sapiens) (UniProt Q9NRP7); conditions: Compound concentration 1000.0 nM
[28] = target: Cyclin-dependent kinase 11A (Homo sapiens) (UniProt Q9UQ88); conditions: Compound concentration 1000.0 nM
[29] = target: Histamine H4 receptor (Homo sapiens) (UniProt Q9H3N8); conditions: Compound concentration 10.0 uM
[30] = target: Histamine H3 receptor (Homo sapiens) (UniProt Q9Y5N1); assay: H3 (h) Eurofins-Cerep Cellular and Nuclear Receptor Functional Assays; conditions: Compound concentration 10.0 uM
[31] = target: Serine/threonine-protein kinase BRSK2 (Homo sapiens) (UniProt Q8IWQ3); conditions: Compound concentration 1000.0 nM
[32] = target: Testis-specific serine/threonine-protein kinase 1 (Homo sapiens) (UniProt Q9BXA7); conditions: Compound concentration 1000.0 nM
[33] = target: Platelet-derived growth factor receptor beta (Homo sapiens) (UniProt P09619); conditions: Compound concentration 1000.0 nM
[34] = target: Cannabinoid receptor 1 (Homo sapiens) (UniProt P21554); assay: CB1 (h) Eurofins-Cerep Cellular and Nuclear Receptor Functional Assays; conditions: Compound concentration 10.0 uM
[35] = target: Serine/threonine-protein kinase PAK 6 (Homo sapiens) (UniProt Q9NQU5); conditions: Compound concentration 1000.0 nM
[36] = target: Serine/threonine-protein kinase PAK 1 (Homo sapiens) (UniProt Q13153); conditions: Compound concentration 1000.0 nM
[37] = target: Ribosomal protein S6 kinase alpha-1 (Homo sapiens) (UniProt Q15418); conditions: Compound concentration 1000.0 nM
[38] = target: Histamine H2 receptor (Homo sapiens) (UniProt P25021); assay: H2 (h) Eurofins-Cerep Cellular and Nuclear Receptor Functional Assays; conditions: Compound concentration 10.0 uM
Sequence of Histamine H2 receptor (Homo sapiens) (P25021 whole entry): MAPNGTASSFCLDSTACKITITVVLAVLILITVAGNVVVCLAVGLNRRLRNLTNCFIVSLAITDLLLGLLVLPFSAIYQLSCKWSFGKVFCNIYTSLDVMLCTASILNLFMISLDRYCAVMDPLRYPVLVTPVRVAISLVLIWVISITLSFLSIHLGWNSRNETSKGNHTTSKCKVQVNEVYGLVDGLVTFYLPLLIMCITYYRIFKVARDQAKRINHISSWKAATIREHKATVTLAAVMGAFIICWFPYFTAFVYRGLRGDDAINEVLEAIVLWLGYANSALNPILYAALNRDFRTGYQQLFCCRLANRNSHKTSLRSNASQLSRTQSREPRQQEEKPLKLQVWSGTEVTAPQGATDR

Sequence of Histamine H3 receptor (Homo sapiens) (Q9Y5N1 whole entry): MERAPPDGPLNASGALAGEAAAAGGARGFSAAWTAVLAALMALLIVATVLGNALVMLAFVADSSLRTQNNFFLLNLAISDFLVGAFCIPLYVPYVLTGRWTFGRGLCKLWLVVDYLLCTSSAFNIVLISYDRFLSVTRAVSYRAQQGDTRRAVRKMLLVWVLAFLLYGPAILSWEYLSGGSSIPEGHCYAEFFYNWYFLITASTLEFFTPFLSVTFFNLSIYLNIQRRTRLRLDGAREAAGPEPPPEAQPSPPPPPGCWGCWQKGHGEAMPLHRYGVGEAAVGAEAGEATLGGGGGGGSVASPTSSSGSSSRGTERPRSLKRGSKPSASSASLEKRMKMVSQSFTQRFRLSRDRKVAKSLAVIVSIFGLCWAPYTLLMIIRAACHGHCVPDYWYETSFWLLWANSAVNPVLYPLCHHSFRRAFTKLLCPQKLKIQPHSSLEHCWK
Sequence of 5-hydroxytryptamine receptor 2B (Homo sapiens) (P41595 whole entry): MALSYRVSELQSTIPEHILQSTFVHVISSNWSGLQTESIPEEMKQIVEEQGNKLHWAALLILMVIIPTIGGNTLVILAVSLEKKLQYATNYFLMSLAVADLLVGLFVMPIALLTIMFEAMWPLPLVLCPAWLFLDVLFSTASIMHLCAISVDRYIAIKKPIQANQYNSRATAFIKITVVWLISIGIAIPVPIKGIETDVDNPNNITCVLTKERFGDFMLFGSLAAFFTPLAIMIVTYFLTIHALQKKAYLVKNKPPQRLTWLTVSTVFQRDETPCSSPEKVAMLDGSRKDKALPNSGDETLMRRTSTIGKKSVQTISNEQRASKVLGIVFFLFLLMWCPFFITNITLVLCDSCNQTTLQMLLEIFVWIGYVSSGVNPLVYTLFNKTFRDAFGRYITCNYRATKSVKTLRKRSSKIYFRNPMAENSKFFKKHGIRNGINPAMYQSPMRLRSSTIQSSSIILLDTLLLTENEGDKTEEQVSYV
Sequence of Cannabinoid receptor 1 (Homo sapiens) (P21554 whole entry): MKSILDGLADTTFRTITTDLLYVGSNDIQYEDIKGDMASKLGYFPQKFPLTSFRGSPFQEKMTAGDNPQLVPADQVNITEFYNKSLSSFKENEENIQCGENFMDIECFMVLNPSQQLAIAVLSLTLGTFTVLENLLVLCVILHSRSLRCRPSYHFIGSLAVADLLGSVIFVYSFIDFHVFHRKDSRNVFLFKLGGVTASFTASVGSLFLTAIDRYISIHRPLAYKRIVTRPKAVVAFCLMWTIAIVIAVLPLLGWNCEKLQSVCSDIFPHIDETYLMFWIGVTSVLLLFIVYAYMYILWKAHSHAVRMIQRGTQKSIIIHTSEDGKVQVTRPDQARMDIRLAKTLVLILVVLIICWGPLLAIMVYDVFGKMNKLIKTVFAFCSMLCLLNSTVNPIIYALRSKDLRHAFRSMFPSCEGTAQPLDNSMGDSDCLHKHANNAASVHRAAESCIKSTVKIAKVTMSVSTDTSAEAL
Sequence of Serine/threonine-protein kinase BRSK2 (Homo sapiens) (Q8IWQ3 whole entry): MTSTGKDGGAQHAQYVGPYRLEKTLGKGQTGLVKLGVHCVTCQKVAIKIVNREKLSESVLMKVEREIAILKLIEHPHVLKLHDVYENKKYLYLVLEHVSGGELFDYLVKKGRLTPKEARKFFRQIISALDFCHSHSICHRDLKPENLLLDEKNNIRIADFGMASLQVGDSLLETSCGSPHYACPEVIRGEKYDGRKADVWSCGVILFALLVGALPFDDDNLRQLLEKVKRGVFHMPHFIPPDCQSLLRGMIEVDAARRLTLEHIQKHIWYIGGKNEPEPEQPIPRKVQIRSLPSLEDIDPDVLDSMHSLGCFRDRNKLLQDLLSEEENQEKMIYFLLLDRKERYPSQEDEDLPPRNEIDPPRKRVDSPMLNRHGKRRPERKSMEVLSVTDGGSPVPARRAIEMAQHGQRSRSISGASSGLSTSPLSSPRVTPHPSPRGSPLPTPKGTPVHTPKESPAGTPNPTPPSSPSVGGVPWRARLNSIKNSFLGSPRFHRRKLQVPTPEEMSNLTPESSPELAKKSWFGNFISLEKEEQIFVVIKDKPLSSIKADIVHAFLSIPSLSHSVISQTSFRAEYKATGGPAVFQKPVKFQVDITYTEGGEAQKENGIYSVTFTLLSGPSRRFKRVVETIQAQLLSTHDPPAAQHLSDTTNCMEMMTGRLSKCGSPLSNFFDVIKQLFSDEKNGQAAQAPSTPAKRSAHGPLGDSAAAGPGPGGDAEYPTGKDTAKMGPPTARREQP
Sequence of Testis-specific serine/threonine-protein kinase 1 (Homo sapiens) (Q9BXA7 whole entry): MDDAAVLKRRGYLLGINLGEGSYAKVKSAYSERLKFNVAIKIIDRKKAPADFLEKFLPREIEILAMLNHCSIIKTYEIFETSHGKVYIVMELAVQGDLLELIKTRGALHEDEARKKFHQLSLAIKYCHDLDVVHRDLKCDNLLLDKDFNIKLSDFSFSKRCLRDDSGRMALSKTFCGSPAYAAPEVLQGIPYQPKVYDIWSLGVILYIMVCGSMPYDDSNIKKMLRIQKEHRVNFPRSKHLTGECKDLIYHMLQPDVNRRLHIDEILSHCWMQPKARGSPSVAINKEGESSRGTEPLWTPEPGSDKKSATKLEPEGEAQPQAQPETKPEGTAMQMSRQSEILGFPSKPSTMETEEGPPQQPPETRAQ
Sequence of Serine/threonine-protein kinase D3 (Homo sapiens) (O94806 whole entry): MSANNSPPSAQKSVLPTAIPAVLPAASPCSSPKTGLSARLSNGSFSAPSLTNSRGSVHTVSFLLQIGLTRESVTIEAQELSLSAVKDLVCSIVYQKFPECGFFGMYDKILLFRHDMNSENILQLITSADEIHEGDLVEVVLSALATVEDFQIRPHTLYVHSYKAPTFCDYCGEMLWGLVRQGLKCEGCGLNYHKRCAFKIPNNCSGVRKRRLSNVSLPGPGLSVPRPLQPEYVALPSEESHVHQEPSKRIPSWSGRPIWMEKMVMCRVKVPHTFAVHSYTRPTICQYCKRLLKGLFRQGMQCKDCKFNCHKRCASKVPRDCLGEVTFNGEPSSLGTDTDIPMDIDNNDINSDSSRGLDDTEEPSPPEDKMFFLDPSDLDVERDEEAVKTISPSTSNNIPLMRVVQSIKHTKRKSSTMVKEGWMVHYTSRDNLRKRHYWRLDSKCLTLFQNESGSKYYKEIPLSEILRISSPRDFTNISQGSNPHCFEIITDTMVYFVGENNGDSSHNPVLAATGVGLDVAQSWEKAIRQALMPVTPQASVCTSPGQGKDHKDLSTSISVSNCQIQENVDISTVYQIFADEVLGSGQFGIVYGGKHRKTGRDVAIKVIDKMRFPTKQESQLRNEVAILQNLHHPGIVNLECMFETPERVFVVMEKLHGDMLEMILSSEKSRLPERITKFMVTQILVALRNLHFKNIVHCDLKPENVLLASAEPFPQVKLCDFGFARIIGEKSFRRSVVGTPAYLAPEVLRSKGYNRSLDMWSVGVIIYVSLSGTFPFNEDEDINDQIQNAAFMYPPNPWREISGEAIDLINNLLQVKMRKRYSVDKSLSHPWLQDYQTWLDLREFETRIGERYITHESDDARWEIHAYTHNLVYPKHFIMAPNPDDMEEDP
Sequence of Serine/threonine-protein kinase 32C (Homo sapiens) (Q86UX6 whole entry): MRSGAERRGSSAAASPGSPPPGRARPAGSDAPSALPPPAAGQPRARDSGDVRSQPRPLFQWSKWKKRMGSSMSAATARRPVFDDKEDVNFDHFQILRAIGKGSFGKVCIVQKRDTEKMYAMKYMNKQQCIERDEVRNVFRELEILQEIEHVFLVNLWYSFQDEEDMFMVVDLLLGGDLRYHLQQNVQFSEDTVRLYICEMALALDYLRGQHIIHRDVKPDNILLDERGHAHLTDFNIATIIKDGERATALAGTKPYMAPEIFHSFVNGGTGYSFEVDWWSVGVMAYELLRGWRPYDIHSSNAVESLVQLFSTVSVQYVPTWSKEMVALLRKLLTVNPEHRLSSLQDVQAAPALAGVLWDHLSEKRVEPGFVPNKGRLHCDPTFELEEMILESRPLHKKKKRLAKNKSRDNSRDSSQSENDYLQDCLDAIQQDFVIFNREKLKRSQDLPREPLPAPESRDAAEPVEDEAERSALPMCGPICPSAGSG
Sequence of Cyclin-dependent kinase 8 (Homo sapiens) (P49336 whole entry): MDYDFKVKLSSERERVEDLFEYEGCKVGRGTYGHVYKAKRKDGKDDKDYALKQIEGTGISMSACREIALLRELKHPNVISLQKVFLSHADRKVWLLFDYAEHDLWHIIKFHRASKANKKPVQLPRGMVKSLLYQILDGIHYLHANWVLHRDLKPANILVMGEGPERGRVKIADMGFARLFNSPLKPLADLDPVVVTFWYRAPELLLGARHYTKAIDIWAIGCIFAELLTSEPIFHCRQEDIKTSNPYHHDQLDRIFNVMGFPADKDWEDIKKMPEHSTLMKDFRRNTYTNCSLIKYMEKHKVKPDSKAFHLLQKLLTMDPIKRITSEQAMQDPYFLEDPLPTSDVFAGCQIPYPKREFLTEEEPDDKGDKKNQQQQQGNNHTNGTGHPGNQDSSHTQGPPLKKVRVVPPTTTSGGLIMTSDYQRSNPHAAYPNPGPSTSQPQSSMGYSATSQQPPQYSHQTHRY

O=C(N1CCS(=O)(=O)CC1)N1C[C@H](c2ccc(OC(F)(F)F)cc2)C[C@H](c2nc(C3CC3)no2)C1 [BAY-386]
residual activity [1]: 97%
inhibition [2]: -4.38%
residual activity [3]: 100%
residual activity [4]: 100%
residual activity [5]: 100%
residual activity [6]: 100%
residual activity [7]: 99%
residual activity [8]: 100%
residual activity [9]: 92%
residual activity [10]: 93%
residual activity [11]: 100%
residual activity [12]: 87%
residual activity [13]: 100%
residual activity [14]: 97%
residual activity [15]: 100%
residual activity [16]: 100%
% Inhibition of Control Agonist Response (Mean n=2) [17]: 7%
% of Control Agonist Response (Mean n=2) [17]: 1.6%
inhibition [18]: 2.07%
residual activity [19]: 97%
residual activity [20]: 100%
residual activity [21]: 100%
inhibition [22]: 11.8%
inhibition [23]: 4.1%
residual activity [24]: 66%
residual activity [25]: 100%
residual activity [26]: 100%
residual activity [27]: 100%
residual activity [28]: 0%
inhibition [29]: -4.72%
% Inhibition of Control Agonist Response (Mean n=2) [30]: -3.7%
% of Control Agonist Response (Mean n=2) [30]: 6.2%
residual activity [31]: 100%
residual activity [32]: 95%
residual activity [33]: 100%
% Inhibition of Control Agonist Response (Mean n=2) [34]: 80.7%
% of Control Agonist Response (Mean n=2) [34]: -267%
residual activity [35]: 100%
residual activity [36]: 100%
residual activity [37]: 100%
% Inhibition of Control Agonist Response (Mean n=2) [38]: 9.6%
% of Control Agonist Response (Mean n=2) [38]: -0.7%

Cc1noc([C@H]2C[C@@H](c3ccc(C(F)(F)F)cc3)CN(C(=O)N3CCS(=O)(=O)C3)C2)n1 [BAY-448]
residual activity [1]: 100%
inhibition [2]: 2.23%
residual activity [3]: 92%
residual activity [4]: 100%
residual activity [5]: 100%
residual activity [6]: 87%
residual activity [7]: 100%
residual activity [8]: 84%
residual activity [9]: 100%
residual activity [10]: 100%
residual activity [11]: 100%
residual activity [12]: 91%
residual activity [13]: 100%
residual activity [14]: 100%
residual activity [15]: 100%
residual activity [16]: 89%
% Inhibition of Control Agonist Response (Mean n=2) [17]: -3%
% of Control Agonist Response (Mean n=2) [17]: 0.4%
inhibition [18]: -7.31%
residual activity [19]: 100%
residual activity [20]: 96%
residual activity [21]: 100%
inhibition [22]: 24%
inhibition [23]: -1.71%
residual activity [24]: 83%
residual activity [25]: 100%
residual activity [26]: 100%
residual activity [27]: 100%
residual activity [28]: 100%
inhibition [29]: -2.74%
% Inhibition of Control Agonist Response (Mean n=2) [30]: -4.2%
% of Control Agonist Response (Mean n=2) [30]: 13.9%
residual activity [31]: 100%
residual activity [32]: 100%
residual activity [33]: 100%
% Inhibition of Control Agonist Response (Mean n=2) [34]: -0.6%
% of Control Agonist Response (Mean n=2) [34]: -17.6%
residual activity [35]: 100%
residual activity [36]: 79%
residual activity [37]: 100%
% Inhibition of Control Agonist Response (Mean n=2) [38]: -2.8%
% of Control Agonist Response (Mean n=2) [38]: 2.6%

Source: ChEMBL document CHEMBL4507269, “Data for DCP probe BAY-386” (2021)
